Drawing on article PMC9490316, “Covalent fragment inhibits intramembrane proteolysis” (Frontiers in Molecular Biosciences, 2022), this text covers IC50 for one compound.

The target of the assay is T1, transmembrane domain of amyloid precursor protein (APPTM) (Homo sapiens, UniProt P05067).
T1 construct: gene APP; APPTM, transmembrane domain of amyloid precursor protein (5,590 Da, 15N labeled, in DPC micelles)
The assay can be described thus: 2D 1H-15N TROSY NMR and MALDI-TOF-MS (covalent adducts, up to six additions); the IC50 is from a gel-based assay of APPTM cleavage by PSH. Format: biochemical.

T1 sequence (P05067 686-726 limits assumed): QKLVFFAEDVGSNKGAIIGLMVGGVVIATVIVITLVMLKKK

As usually defined, the IC50 is the point on the concentration scale where inhibition reaches its midpoint. In turn, `Oc1ccc(O)c2c1C1CCC2C1` [6H8] had an IC50 of 2 to 4 µM.
